Columns and labels:
Type in all cases: cell-based
[1] = tested on: Bacillus subtilis PCI-219; test: MIC, agar medium containing the compound; conditions: bacterium No. 4, 37° C., 4 hours
Description: (§1) In order to test antifungal and bactericidal activity of halo-salicylanilide obtained in above mentioned Examples, following bacteria and fungi are employed.
No. 4 Bacillus subtilis PCI-219
(§2) Bacteria No. 1 to No. 4 are respectively cultured in Hart Infusion bouillon medium at 37° C. for 20 hours and resulting medium liquids are employed for said test. Fungi No. 5 to No. 7 are respectively cultured in Sabouraud agar medium and 10^6 cell/ml of cell dispersing liquids obtained from said medium are employed for said test.

[2] = tested on: Staphylococcus aureus FDA-209-P; test: MIC, agar medium containing the compound; conditions: bacterium No. 3, 37° C., 4 hours
Description: as §1
No. 3 Staphylococcus aureus FDA-209-P
as §2

[3] = tested on: bacteria No. 1 to No. 4 and fungi No. 5 to No. 7; test: Antifungal and bactericidal activity test, overall assessment of Table 8; conditions: referring to Table 8
Description: as §1, §2
Referring now to Table 8, in said Examples the halo-salicylanilides provided have respectively remarkable higher antifungal and bactericidal activity than that of the contrasts proposed and said halo-salicylanilidesare especially effective on bacteria No. 3 and No. 4, and fungi No. 5, No. 6 and No. 7. This testifies that alkyl group of 2'-position of the halo-salicylanilides is significant for the activities of the compound. […] Especially the halo-salicylanilides having fluorine in 5-position are very useful for agricultural medicines.

[4] = tested on: Trichophyton rubrum IFO 9185; test: MIC, Sabouraud agar medium containing the compound; conditions: fungus No. 7, 20° C., 14 days
Description: as §1
No. 7 Trichophyton rubrum IFO 9185
as §2

[5] = tested on: Escherichia coli NIHJ JC-2; test: MIC, agar medium containing the compound; conditions: bacterium No. 1, 37° C., 4 hours
Description: as §1
No. 1 Escherichia coli NIHJ JC-2
as §2

[6] = tested on: Candida albicans ATCC 10259; test: Multiplying state after removal to compound-free medium (scanning electron microscope)
[7] = tested on: Candida albicans ATCC 10259; test: MIC, Sabouraud agar medium containing the compound; conditions: fungus No. 5, 20° C., 14 days
Description: as §1
No. 5 Candida albicans ATCC 10259
as §2

[8] = tested on: Aspergillus flavus IFO 8558; test: MIC, Sabouraud agar medium containing the compound; conditions: fungus No. 6, 20° C., 14 days
Description: as §1
No. 6 Aspergillus flavus IFO 8558
as §2

Cc1cc(Cl)ccc1NC(=O)c1cc(I)ccc1O [compound 3, 5-iodo-2'-methyl-4'-chloro salicylanilide]
MIC (Minimum Inhibitory Concentration) [1]: 1.5 | MIC (Minimum Inhibitory Concentration) [2]: 0.75 | antifungal and bactericidal activity (assessment in words) [3]: remarkable antifungal and bactericidal activity | MIC (Minimum Inhibitory Concentration) [4]: 6.3 | MIC (Minimum Inhibitory Concentration) [5]: > 100 | multiplying state of the fungi after removal to culture medium without the compound ([6]; first cultured in medium containing the compound, then removed, FIG. 1 and FIG. 2): does not start to multiply | destruction of the cell membranes of the fungi ([6]; scanning electron microscope, FIG. 2): destruction of the cell membranes of the fungi is observed | MIC (Minimum Inhibitory Concentration) [7]: 6.3 | MIC (Minimum Inhibitory Concentration) [8]: 6.3

From patent US4310682A, “Halo-salicylanilide” (priority 1979, dated 1982)
